Consider one molecule from patent US20250177351A1, “ISOINDOLINE COMPOSITIONS AND METHODS FOR TREATING NEURODEGENERATIVE DISEASE” (Cognition Therapeutics, Inc., priority 2022, published 2025).

Data set [1] can be described thus: Phase 1 SAD study: safety assessments. In kind it is in vivo, human. How it is done: Part A was a single ascending dose cohort study in which healthy, young subjects (less than 65 years old) received one dose of study drug in the morning after an overnight fast. Cohort dosing started at 10 mg and increased to 30 mg, 90 mg, 180 mg, 450 mg, and 1120 mg in subsequent cohorts. Six drug-treated and two placebo-treated subjects were randomized in each cohort. A seventh cohort of six subjects each received a single 90 mg dose of drug 30 min. after a meal. Following completion of all safety assessments and blood draws for PK analyses, subjects were discharged on Day 3.
Safety variables, including incidence of adverse events (AEs), vital signs, clinical laboratory findings, 12-lead electrocardiographs (ECGs), physical examination, and affective and cognitive measures (Part B only), were summarized for all subjects who received study drug.

Data set [2] is described as follows: Phase 1 MAD study: CT1812 concentration in CSF. Type of data set: in vivo, human. To be noted: humans, from CSF levels. An excerpt: CT1812 was quantitated in CSF using a validated LC-MS/MS method.

For the molecule `CC(C)(C)Oc1cc(CCC(C)(C)N2Cc3ccc(S(C)(=O)=O)cc3C2)ccc1O` [CT1812], in data set [1] (SAD), the ECG result is reported as “No ECG parameters or changes were assessed as clinically significant”. Also, the clinical laboratory results in data set [1] (SAD) is recorded as “no subjects with clinically significant laboratory results”. The “Number of Subjects with Treatment-Emergent AE: All TEAEs” value came out at 18 in data set [1] (SAD Total Active (n = 42)); 2 in data set [1] (SAD fasted 10 mg (n = 6)); 4 in data set [1] (SAD fasted 30 mg (n = 6)); 2 in data set [1] (SAD fasted 180 mg (n = 6)); 4 in data set [1] (SAD fasted 450 mg (n = 6)); 4 in data set [1] (SAD fasted 1120 mg (n = 6)). In data set [1] (SAD fed 90 mg (n = 6)), the “Number of Subjects with Treatment-Emergent AE: All TEAEs” value came out at 2. Moreover, the “Number of Subjects with Treatment-Emergent AE: Headache” value in data set [1] (SAD Total Active (n = 42)) came to 6; in data set [1] (SAD fasted 30 mg (n = 6)), 3; in data set [1] (SAD fasted 450 mg (n = 6)) it was 1; in data set [1] (SAD fasted 1120 mg (n = 6)) it was 1; in data set [1] (SAD fed 90 mg (n = 6)), 1. The “Number of Subjects with Treatment-Emergent AE: Nausea” value in data set [1] (SAD Total Active (n = 42)) worked out at 6; in data set [1] (SAD fasted 30 mg (n = 6)), 1; in data set [1] (SAD fasted 450 mg (n = 6)), 2; in data set [1] (SAD fasted 1120 mg (n = 6)) it was 3. Moreover, the “deaths or serious adverse events” value in data set [1] (SAD, 10 mg to 1120 mg) is reported as “no deaths or other serious adverse events”. Further, the tolerability result in data set [1] (single dose 10 mg to 1120 mg, healthy subjects) is listed as “well tolerated”. For the same molecule, the blood-brain barrier penetration result in data set [2] was “penetrates the blood-brain barrier”.
